Data: paper PMC12250347, “Calcium-dependent pathway as a primary cause of hypoxic RGC damage in monkey retinal explants” (PLOS One, 2025)

Assays:
[1] = target: T1, human recombinant cathepsin K (Homo sapiens, UniProt P43235); test: In vitro cathepsin inhibitory assay (Z-Phe-Arg-AMC fluorescence); format: biochemical; details: 20 ng/mL cathepsin K, 20 µM Z-Phe-Arg-AMC, 15 min, 37°C, pH 5.5; mean of two experiments
T1 construct: purchased MilliporeSigma
T1 sequence (P43235 115-329): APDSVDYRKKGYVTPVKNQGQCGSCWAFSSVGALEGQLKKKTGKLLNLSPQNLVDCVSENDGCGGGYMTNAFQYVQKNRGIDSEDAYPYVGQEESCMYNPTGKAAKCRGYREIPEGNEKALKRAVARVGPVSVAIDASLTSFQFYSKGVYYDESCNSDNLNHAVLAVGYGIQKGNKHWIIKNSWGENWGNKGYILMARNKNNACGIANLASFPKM
Description: (§1) Cathepsins K, B, and L were selected because of their known roles in cell death and early release following lysosomal membrane permeabilization. The inhibitory activities of cathepsin inhibitors were assessed in vitro using human recombinant cathepsin K (MilliporeSigma), human liver cathepsin B (MilliporeSigma), and human liver cathepsin L (MilliporeSigma). Cathepsins and the cathepsin substrate, Z-Phe-Arg-AMC (PEPTIDE INSTITUTE, INC.), were dissolved in 50 mM sodium acetate buffer (pH 5.5) containing 2 mM dithiothreitol and 2 mM EDTA. A cathepsin K inhibitor, Odanacatib (Selleck Chemicals, Houston, TX, USA), and a cathepsin L inhibitor, SID26681509 (Bio-Techne Corporation), were dissolved in dimethyl sulfoxide (DMSO) (Nacalai Tesque, Kyoto, Japan) before use in the assay. The final concentration of DMSO in the reaction solution was 2%. The cathepsin substrate, 20 µM Z-Phe-Arg-AMC, was incubated for 15 min with 20 ng/mL cathepsin K, 15 ng/mL cathepsin B, or 50 ng/mL cathepsin L, with or without each inhibitor at a final concentration of 0.001 nM to 100 µM in 100 µL of mixed reaction solution in a 96-well plate at 37 °C. The fluorescence was measured using a microplate reader (GloMax Discover System; Promega). IC50 values from two independent experiments were averaged.

human liver cathepsin L = target: T2, human liver cathepsin L (Homo sapiens, UniProt P07711); test: as above; format: biochemical; details: 50 ng/mL cathepsin L, 20 µM Z-Phe-Arg-AMC, 15 min, 37°C, pH 5.5; mean of two experiments
T2 construct: human liver cathepsin L (MilliporeSigma); purchased MilliporeSigma; host or cells: human liver
Description: as §1

human liver cathepsin B = target: T3, human liver cathepsin B (Homo sapiens, UniProt P07858); test: as above; format: biochemical; details: 15 ng/mL cathepsin B, 20 µM Z-Phe-Arg-AMC, 15 min, 37°C, pH 5.5; mean of two experiments
T3 construct: human liver cathepsin B (MilliporeSigma); purchased MilliporeSigma; host or cells: human liver
Description: as §1

[2] = test system: calpain-specific SBDP150 in nerve fiber layer (NFL); test: SBDP150 immunostaining of flat-mounted retinal explants under hypoxia/reoxygenation; format: cell-based, rhesus macaques (Macaca mulatta); details: H16R8; for Effect on calpain-specific SBDP150-positive staining in NFL: cathepsin inhibitor at 10 or 100 µM
Description: Retina explant culture was performed as described in our previous report, except for the induction of hypoxia. Briefly, a hypoxic chamber (Coy Laboratory Products, Grass Lake, MI, USA) was controlled at 0.3% oxygen with a 95% N2/5% CO2 gas mixture. Retinas were dissected into fan-shaped explants with 6 or 7 petals (> 5 mm) in HBSS. Each explant was placed with the RGC side facing up on a Millicell organotypic standing insert (0.4 μm, 30 mm diameter, MilliporeSigma) in six-well, culture plates. They were cultured for 2 hr at 37°C under 95% N2/5% CO2 in Neurobasal-A medium supplemented with B27, N2 supplements, 2 mM L-glutamine (Thermo Fisher Scientific, Waltham, MA, USA), and 100 μg/mL primocin (Invivogen, San Diego, CA, USA). Retinal explants were then chamber-cultured under hypoxic conditions for 16 hr in a culture medium with 0.5 mM glucose, under 0.3% oxygen. The retinas were then re-oxygenated for 8 hr in a culture medium with 5.5 mM glucose. Normoxic control retinas were cultured for 24 hr in a culture medium with 5.5 mM glucose. When present, calpain inhibitors (SNJ-1945, PD-151746, C2I, and ABT-957) and cathepsin inhibitors (Odanacatib and SID26681509) in 0.1% DMSO were used at the final concentration of 10 or 100 μM in the medium. BAPTA (Thermo Fisher Scientific) and BAPTA-AM (Thermo Fisher Scientific) were also used at a final concentration of 3 or 10 mM or a final concentration of 100 or 500 μM, respectively.
All inhibitors and BAPTA were treated simultaneously with hypoxia induction, and BAPTA-AM treatment was 2 hr before hypoxia induction.
Formalin-fixed retinal explants were incubated overnight at −30°C in 1: 4 dilutions of DMSO-ethanol to promote antibody penetration. The explants underwent two cycles of freezing and thawing between −80°C and room temperature in 100% ethanol for 20 min. The retinas were then rehydrated in 70%, 50%, and 15% ethanol and PBS for 20 min each, followed by overnight incubation with 0.2% Triton X-100. The samples were stained with antibodies specific for calpain-specific SBDP150 [8] (1:100 dilution, Senju Pharmaceutical) and β-III tubulin (a neuron marker, 1:500 dilution, Merck). The nerve fiber layer (NFL) was observed approximately 5 mm from the tips of the fan-shaped retinal flat mounts. Confocal images were taken using a model LSM 880 spectral confocal system with a 20x 0.8 NA lens (Carl Zeiss, Oberkochen, Germany).

[3] = test system: calpain 1 activation and proteolysis of α-spectrin; design: method as in PMID 26393472; details: immunoblotting of hypoxic retinal explants; cited from earlier work
[4] = test system: RGCs in monkey retinal explants; design: method as in PMID 26393472, PMID 33156340; details: human and monkey retinal explants treated with hypoxia; cited from earlier work

T2 sequence (P07711 114-333): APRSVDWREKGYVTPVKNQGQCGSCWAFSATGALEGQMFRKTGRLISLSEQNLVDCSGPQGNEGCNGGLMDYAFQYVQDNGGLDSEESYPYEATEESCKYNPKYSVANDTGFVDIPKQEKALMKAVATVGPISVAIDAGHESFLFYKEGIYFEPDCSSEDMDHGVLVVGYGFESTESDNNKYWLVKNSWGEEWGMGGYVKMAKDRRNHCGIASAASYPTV

IC50 [1] [nM] | IC50 (human liver cathepsin L) [nM] | IC50 (human liver cathepsin B) [nM] | SMILES | Effect on calpain-specific SBDP150-positive staining in NFL [2] | Effect on autolysis of calpain 1 in hypoxic retinal explants [3] | Effect on autolysis of calpain 2 in hypoxic retinal explants [3] | Effect on RGC damage in hypoxic retinal explants [4] | Effect on calpain-specific SBDP150 staining in NFL (calpain activation) ([2]; calpain inhibitor at 100 µM)
0.28 | 5130 | 167 | CC(C)(F)C[C@H](N[C@@H](c1ccc(-c2ccc(S(C)(=O)=O)cc2)cc1)C(F)(F)F)C(=O)NC1(C#N)CC1 [Odanacatib] | Neither Odanacatib nor SID26681509 mitigated the increase |  |  |  | 
1520 | 60 | 495 | CCc1ccccc1NC(=O)CSC(=O)NNC(=O)[C@H](Cc1c[nH]c2ccccc12)NC(=O)OC(C)(C)C [SID26681509] | Neither Odanacatib nor SID26681509 mitigated the increase |  |  |  | 
 |  |  | COCCOCCOC(=O)N[C@@H](CC(C)C)C(=O)N[C@@H](Cc1ccccc1)C(=O)C(=O)NC1CC1 [SNJ-1945] |  | inhibited the autolysis of calpain 1 | did not affect | partially inhibited RGC damage | demonstrated efficacy in reducing calpain activation
